The source of these data is ChEMBL document CHEMBL1909046, “DrugMatrix in vitro pharmacology data”.

Series [1] deals with Melanocortin receptor 5 (Homo sapiens, UniProt P33032). The class given is cell membranes, Membrane. Conditions: hek293.
For series [2], the target named is T1, Angiotensin-converting enzyme (Oryctolagus cuniculus, UniProt P12822).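 Also: enzymatic inhibition of angiotensin-converting enzyme measured with FAPGG as the substrate.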
T1 sequence (P12822 whole entry): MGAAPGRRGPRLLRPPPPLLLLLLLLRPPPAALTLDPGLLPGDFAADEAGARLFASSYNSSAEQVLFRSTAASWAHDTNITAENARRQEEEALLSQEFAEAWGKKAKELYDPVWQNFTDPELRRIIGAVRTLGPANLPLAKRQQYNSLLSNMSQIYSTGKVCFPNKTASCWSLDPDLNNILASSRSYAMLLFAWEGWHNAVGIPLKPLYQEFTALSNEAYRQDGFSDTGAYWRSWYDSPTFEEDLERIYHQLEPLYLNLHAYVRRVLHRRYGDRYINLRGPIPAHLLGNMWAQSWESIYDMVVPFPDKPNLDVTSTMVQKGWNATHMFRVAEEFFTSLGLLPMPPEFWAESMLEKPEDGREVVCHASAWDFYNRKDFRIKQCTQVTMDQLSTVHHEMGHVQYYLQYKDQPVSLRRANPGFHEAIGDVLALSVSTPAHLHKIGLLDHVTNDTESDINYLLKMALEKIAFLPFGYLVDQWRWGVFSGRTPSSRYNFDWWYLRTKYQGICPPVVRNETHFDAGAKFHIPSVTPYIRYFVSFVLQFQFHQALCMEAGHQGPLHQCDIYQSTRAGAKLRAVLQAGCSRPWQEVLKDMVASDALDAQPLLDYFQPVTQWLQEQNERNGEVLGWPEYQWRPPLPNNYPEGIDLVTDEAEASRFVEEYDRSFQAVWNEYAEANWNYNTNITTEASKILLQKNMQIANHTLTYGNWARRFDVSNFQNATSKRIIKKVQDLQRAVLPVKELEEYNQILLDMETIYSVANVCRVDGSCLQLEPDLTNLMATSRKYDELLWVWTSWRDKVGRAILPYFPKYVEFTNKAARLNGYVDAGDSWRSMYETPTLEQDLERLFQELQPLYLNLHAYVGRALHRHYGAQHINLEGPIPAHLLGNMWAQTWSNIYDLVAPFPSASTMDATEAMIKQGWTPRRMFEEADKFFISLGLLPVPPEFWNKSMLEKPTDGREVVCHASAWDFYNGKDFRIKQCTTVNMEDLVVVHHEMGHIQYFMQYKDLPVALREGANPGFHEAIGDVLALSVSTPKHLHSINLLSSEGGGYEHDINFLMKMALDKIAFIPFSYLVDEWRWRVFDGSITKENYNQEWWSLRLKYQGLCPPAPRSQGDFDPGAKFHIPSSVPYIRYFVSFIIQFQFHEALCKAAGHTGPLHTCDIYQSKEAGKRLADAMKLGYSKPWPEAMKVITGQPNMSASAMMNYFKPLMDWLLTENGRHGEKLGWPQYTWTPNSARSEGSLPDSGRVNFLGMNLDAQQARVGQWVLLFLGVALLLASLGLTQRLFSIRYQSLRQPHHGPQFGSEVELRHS
In kind it is tissue-based, Lung.

Series [3] concerns the target T2, C-X-C chemokine receptor type 2 (Homo sapiens, UniProt P25025).
T2 sequence (P25025 whole entry): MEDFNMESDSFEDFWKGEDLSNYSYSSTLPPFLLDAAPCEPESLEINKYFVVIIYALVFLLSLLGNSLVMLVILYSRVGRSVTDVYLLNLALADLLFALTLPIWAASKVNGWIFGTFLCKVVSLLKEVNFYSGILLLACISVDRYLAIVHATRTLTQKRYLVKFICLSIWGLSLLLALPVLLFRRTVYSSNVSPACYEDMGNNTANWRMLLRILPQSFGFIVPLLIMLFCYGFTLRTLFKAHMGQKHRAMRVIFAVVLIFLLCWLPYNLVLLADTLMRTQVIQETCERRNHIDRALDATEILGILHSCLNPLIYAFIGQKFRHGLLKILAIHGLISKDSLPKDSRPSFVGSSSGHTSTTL
In kind it is cell membranes, Membrane. The conditions noted are these: cho-k1.

In series [4] the target is T3, Interstitial collagenase (Homo sapiens, UniProt P03956).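 Also: MMP-1 enzyme inhibition assay using a peptide substrate.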
T3 sequence (P03956 whole entry): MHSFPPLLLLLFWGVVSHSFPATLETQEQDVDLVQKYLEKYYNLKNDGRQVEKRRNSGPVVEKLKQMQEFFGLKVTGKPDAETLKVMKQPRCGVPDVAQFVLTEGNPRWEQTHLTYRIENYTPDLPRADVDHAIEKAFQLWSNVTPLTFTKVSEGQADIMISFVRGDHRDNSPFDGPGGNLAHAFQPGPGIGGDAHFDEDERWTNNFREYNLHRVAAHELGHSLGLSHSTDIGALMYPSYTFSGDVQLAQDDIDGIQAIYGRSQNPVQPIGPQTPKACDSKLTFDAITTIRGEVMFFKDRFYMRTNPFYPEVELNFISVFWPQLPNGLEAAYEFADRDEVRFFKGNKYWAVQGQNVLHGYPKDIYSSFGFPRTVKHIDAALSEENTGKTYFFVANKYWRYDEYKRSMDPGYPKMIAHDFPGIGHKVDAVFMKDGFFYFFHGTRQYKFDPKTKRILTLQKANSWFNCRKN
Nature of the series: biochemical. The class given is tissue-based, Rheumatoid synovial fibroblasts.

In series [5] the target is Mitogen-activated protein kinase 14 (Homo sapiens, UniProt Q16539). More on the design: species or system Escherichia coli.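 Also: inhibition of p38alpha enzyme activity in a biochemical kinase assay, with myelin basic protein serving as substrate.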
Series [6] concerns the target Tyrosine-protein kinase Fyn (Homo sapiens, UniProt P06241). The series can be described thus: biochemical. In kind it is cell-based, Insect cells. The conditions noted are these: insect cells.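 Also: enzymatic inhibition of Fyn kinase activity measured with Poly(Glu:Tyr) as the phosphorylation substrate.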
Series [7] has as its target T4, Cytochrome P450 2A6 (Homo sapiens, UniProt P11509).
T4 sequence (P11509 whole entry): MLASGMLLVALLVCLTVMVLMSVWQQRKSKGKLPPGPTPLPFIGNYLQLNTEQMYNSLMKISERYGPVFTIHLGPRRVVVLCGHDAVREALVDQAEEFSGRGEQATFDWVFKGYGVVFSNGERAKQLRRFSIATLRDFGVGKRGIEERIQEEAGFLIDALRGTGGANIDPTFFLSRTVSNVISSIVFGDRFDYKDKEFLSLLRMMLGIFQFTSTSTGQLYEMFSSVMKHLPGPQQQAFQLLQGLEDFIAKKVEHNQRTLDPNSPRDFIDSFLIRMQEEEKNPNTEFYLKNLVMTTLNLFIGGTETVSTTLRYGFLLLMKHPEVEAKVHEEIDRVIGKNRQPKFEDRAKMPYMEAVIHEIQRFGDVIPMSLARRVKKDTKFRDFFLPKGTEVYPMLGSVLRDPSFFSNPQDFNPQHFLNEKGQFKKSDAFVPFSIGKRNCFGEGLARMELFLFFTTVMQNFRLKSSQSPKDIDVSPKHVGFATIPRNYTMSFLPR
The conditions noted are these: bti-tn-5b1-4.

Structures are written as SMILES.
Also: in other assays of this panel Not Active means under 50% inhibition at 10 µM.

Chain of Mitogen-activated protein kinase 14 (Q16539 whole entry): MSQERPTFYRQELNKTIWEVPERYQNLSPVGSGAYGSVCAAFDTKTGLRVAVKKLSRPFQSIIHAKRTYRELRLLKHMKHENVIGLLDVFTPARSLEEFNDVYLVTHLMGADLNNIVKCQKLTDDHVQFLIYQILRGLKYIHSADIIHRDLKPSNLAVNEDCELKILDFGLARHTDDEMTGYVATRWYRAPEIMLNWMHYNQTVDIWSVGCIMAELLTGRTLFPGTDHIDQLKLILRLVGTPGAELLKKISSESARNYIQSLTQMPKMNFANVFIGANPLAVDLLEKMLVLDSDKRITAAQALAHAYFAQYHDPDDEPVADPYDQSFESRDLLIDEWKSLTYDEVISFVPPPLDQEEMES
Chain of Melanocortin receptor 5 (P33032 whole entry): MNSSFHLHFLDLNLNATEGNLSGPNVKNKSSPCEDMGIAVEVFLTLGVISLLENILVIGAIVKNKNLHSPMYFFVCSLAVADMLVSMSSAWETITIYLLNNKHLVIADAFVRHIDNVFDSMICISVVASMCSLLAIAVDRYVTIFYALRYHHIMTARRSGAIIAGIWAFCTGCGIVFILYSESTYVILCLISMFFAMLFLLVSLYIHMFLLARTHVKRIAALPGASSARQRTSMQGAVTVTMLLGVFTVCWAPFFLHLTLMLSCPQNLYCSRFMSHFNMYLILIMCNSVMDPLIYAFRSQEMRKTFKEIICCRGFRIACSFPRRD
Chain of Tyrosine-protein kinase Fyn (P06241 whole entry): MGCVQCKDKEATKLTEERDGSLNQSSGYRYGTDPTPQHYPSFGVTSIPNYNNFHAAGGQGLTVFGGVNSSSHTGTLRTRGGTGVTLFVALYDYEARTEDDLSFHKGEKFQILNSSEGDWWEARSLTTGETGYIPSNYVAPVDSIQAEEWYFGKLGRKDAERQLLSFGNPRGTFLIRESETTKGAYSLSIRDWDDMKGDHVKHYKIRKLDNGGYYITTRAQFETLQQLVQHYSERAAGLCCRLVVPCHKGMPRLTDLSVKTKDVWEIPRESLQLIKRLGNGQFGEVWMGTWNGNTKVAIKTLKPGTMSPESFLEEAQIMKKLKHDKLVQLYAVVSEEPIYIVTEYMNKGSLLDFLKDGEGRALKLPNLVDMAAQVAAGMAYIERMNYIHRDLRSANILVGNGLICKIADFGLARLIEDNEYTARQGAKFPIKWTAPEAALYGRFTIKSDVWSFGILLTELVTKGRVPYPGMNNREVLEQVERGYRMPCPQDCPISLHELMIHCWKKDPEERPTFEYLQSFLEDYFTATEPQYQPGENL

The term IC50 denotes the concentration needed to halve the response being measured. As for `O=S(=O)([O-])CCS.[Na+]` [MESNA], the 50% inhibitory concentration (IC50) entry in series [1], in series [2], in series [3], in series [4], in series [5] and in series [6] was “Not Active” throughout. The IC50 entry in series [7] is reported as “Not Active”. In addition, the Ki result in series [7] is on record as “Not Active”.
On to `C#C[C@]1(O)CC[C@H]2[C@@H]3CCc4cc(OC)ccc4[C@H]3CC[C@@]21C` [MESTRANOL], for which the IC50 entry in series [1], in series [2], in series [3], in series [4], in series [5] and in series [6] was “Not Active” each time. Also, in series [7], the 50% inhibitory concentration (IC50) entry is “Not Active”. Moreover, the Ki entry in series [7] was “Not Active”.
In the case of `CC(=O)Nc1cccc(O)c1` [METACETAMOL], the IC50 result in series [1], in series [2], in series [3], in series [4], in series [5] and in series [6] was “Not Active” in each case. Moreover, the concentration for half-maximal inhibition (IC50) entry in series [7] is “Not Active”. For the same compound, the Ki result in series [7] is recorded as “Not Active”.
As to `Cc1ncc([N+](=O)[O-])n1CCO` [METRONIDAZOLE], the IC50 result in series [1], in series [2], in series [3], in series [4], in series [5] and in series [6] was “Not Active” each time. In addition, in series [7], the IC50 result is “Not Active”. The Ki result in series [7] is on record as “Not Active”.
Regarding `CC(C)(C(=O)c1cccnc1)c1cccnc1` [METYRAPONE], the IC50 entry in series [1], in series [2], in series [3], in series [4], in series [5] and in series [6] was “Not Active” in each case. The concentration for half-maximal inhibition (IC50) result in series [7] is “Not Active”. Besides, the Ki entry in series [7] is given as “Not Active”.
For `Oc1ccc(OCc2ccccc2)cc1` [MONOBENZONE], the half-inhibitory concentration (IC50) entry in series [1], in series [2], in series [3], in series [4], in series [5] and in series [6] was “Not Active” each time. For the same compound, the half-inhibitory concentration (IC50) entry in series [7] is reported as “Not Active”. For the same compound, in series [7], the Ki result is “Not Active”.
On to `CC(C)(Oc1ccc(C2CCCc3ccccc32)cc1)C(=O)O` (configuration not stated) [NAFENOPIN], for which the IC50 result was “Not Active” in series [1]; “Not Active” in series [2]; “Not Active” in series [3]; “Not Active” in series [4]; 3.74 µM in series [5] (read-out: IC50); “Not Active” in series [6]. In addition, in series [7], the IC50 result is on record as “Not Active”. Further, the Ki result in series [7] was “Not Active”.
In the case of `CC(C)[C@H]1CC[C@H](C(=O)N[C@H](Cc2ccccc2)C(=O)O)CC1` [NATEGLINIDE], the IC50 result in series [1], in series [2], in series [3], in series [4], in series [5] and in series [6] was “Not Active” in each case. The IC50 result in series [7] is “Not Active”. Further, the Ki entry in series [7] is “Not Active”.
`CCN[C@@H]1C[C@H](N)[C@@H](O[C@H]2OC(CN)=CC[C@H]2N)[C@H](O)[C@H]1O[C@H]1OC[C@](C)(O)[C@H](NC)[C@H]1O` [NETILMICIN]: the half-inhibitory concentration (IC50) entry in series [1], in series [2], in series [3], in series [4], in series [5] and in series [6] was “Not Active” throughout. Besides, the IC50 entry in series [7] is “Not Active”. In series [7], the Ki entry is “Not Active”.
With `COC(=O)C1=C(C)NC(C)=C(C(=O)OCC(C)C)C1c1ccccc1[N+](=O)[O-]` (configuration not stated) [NISOLDIPINE], the 50% inhibitory concentration (IC50) result in series [1], in series [2], in series [3], in series [4], in series [5] and in series [6] was “Not Active” each time. Further, in series [7], the half-maximal inhibitory concentration (IC50) result was “Not Active”. Further, the Ki result in series [7] was “Not Active”.
For `CCOC(=O)C1=C(C)NC(C)=C(C(=O)OC)C1c1cccc([N+](=O)[O-])c1` (configuration not stated) [NITRENDIPINE], the IC50 entry in series [1], in series [2], in series [3], in series [4], in series [5] and in series [6] was “Not Active” each time. The IC50 entry in series [7] is reported as “Not Active”. Further, the Ki entry in series [7] was “Not Active”.
Take `C#C[C@]1(OC(C)=O)CC[C@H]2[C@@H]3CCC4=CC(=O)CC[C@@H]4[C@H]3CC[C@@]21C` [NORETHINDRONE ACETATE]: the IC50 result in series [1], in series [2], in series [3], in series [4], in series [5] and in series [6] was “Not Active” in each case. The 50% inhibitory concentration (IC50) entry in series [7] is “Not Active”. In series [7], the Ki result is recorded as “Not Active”.
For `COc1ccc2[nH]c([S+]([O-])Cc3ncc(C)c(OC)c3C)nc2c1` (configuration not stated) [OMEPRAZOLE], the IC50 result in series [1], in series [2], in series [3], in series [4], in series [5] and in series [6] was “Not Active” each time. Also, the half-inhibitory concentration (IC50) entry in series [7] was “Not Active”. In addition, in series [7], the Ki result is listed as “Not Active”.
Turning to `Cc1nccn1CC1CCc2c(c3ccccc3n2C)C1=O` (configuration not stated) [ONDANSETRON], the IC50 entry in series [1], in series [2], in series [3], in series [4], in series [5] and in series [6] was “Not Active” in each case. Further, the IC50 entry in series [7] was “Not Active”. In series [7], the Ki result was “Not Active”.
